Consider four molecules from patent US9023789B2, “Amylin analogs and pharmaceutical compositions thereof” (Novo Nordisk A/S, priority 2012, dated 2015).

SMILES strings stand for the structures. Numbered stars: 1 amine (or outer) side, 2 acyl side, 3 side chain; on linkers, the order of the positions; unused ones are H or OH. Bridge positions count the residues as written; N and C are the ends. Side chains are listed from the residue outwards. Peptide text beside a SMILES is read from it. * marks the point of attachment. C20 diacid = O=C(O)CCCCCCCCCCCCCCCCCCC(=O)*; γGlu = O=C(O)[C@H](CCC(=O)[*:2])N[*:1]; AEEA = NCCOCCOCC(=O)O

Data set [1] is described as follows: ASSAY (III) ThT fibrillation assay for physical stability. Type of data set: physicochemical. The essentials:
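Formulations with 1 μM ThT, pH adjusted as required, incubated at 37 °C with 960 rpm orbital shaking; fluorescence (ex 444/em 485 nm) read every 20 min. Fibrillation reported as mean ThT fluorescence ± SD of 4–8 replicates at time points; polypeptide concentration measured by reverse-phase HPLC before and after, post-centrifugation.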

Data set [2] has as its target T1, rat amylin receptor (rat calcitonin receptor + rat RAMP 3) (Rattus norvegicus, UniProt P32214+Q9JJ73).
T1 construct: expressed in transfected cells; host or cells: BHK tk'ts 13 (transient, FuGENE 6), membranes
T1 sequence (P32214 25-479 isoform P32214-2 limits assumed): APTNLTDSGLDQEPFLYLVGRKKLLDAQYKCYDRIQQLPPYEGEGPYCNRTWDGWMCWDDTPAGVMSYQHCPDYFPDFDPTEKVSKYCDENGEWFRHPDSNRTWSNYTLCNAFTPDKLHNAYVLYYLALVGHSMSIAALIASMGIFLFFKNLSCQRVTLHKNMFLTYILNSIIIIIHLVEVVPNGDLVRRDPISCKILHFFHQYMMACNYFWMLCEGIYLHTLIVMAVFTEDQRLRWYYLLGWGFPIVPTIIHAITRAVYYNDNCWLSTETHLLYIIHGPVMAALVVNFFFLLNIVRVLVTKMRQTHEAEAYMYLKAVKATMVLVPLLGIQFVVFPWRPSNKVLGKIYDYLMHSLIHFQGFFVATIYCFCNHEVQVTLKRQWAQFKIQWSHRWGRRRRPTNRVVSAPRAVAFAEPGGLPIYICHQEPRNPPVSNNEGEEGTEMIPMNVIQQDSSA
T1 sequence (Q9JJ73 23-147 partner): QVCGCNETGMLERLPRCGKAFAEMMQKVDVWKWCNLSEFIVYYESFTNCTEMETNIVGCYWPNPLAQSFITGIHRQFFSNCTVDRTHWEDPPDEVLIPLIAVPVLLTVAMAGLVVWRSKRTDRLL
The data set is described as follows: ASSAY (VI) binding to the rat amylin receptor. Conditions: for IC50: binding to rat amylin receptor, read-out: rAmylin-R bind IC50. An outline of the steps:
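Binding to the rat amylin receptor was determined with membrane preparations. The receptor was expressed by transiently transfecting BHK tk′ts 13 cells with rat calcitonin receptor, using FuGENE® 6 (Roche) according to the manufacturer's recommendations. Roughly 48 hours later the cells were harvested and their membranes isolated.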

[3] abbreviates: Table 7, rat binding selectivity, rCTR IC50 / rAmylin-R IC50.
Where [4] appears, read: Table 7a (preferred compounds), rat binding selectivity, rCTR IC50 / rAmylin-R IC50.
[5] abbreviates: ratio of rCTR bind IC50 to rAmylin-R bind IC50.

For the molecule `CC[C@H](C)[C@H](NC(=O)[C@H](C)NC(=O)CNC(=O)[C@H](Cc1ccccc1)NC(=O)[C@H](CC(N)=O)NC(=O)[C@@H]1CCCN1C(=O)[C@H](CO)NC(=O)[C@H](CO)NC(=O)[C@H](Cc1c[nH]cn1)NC(=O)[C@H](CCCNC(=N)N)NC(=O)[C@H](CC(C)C)NC(=O)[C@H](Cc1ccccc1)NC(=O)[C@H](Cc1c[nH]cn1)NC(=O)[C@H](C)NC(=O)[C@H](CC(C)C)NC(=O)[C@H](CCCNC(=N)N)NC(=O)[C@H](CCC(N)=O)NC(=O)[C@@H](NC(=O)[C@H](C)NC(=O)[C@@H]1CSSC[C@H](NC(=O)[C@@H](N)CCCCNC(=O)CC[C@H](NC(=O)CCCCCCCCCCCCCCCCCCC(=O)O)C(=O)O)C(=O)N[C@@H](CC(N)=O)C(=O)N[C@@H]([C@@H](C)O)C(=O)N[C@@H](C)C(=O)N[C@@H]([C@@H](C)O)C(=O)N1)[C@@H](C)O)C(=O)N1CCC[C@H]1C(=O)N[C@@H](CO)C(=O)N[C@@H](CO)C(=O)N[C@H](C(=O)N[C@@H](CC(N)=O)C(=O)N[C@H](C(=O)NCC(=O)N[C@@H](Cc1c[nH]cn1)C(=O)N[C@@H](CC(N)=O)C(=O)N[C@H](C(=O)N[C@@H](Cc1ccc(O)cc1)C(N)=O)[C@@H](C)O)C(C)C)[C@@H](C)O` [Example 81] (H-K([γGlu-C20 diacid])CNTATCATQRLAHFLRHSSPNFGAIPSSTNVGHNTY-NH2; disulfide 2-7; N-terminus assumed), the “ThT pH 4.0 lag time (h)” value in data set [1] worked out at 45 h. Besides, in data set [2] (Table 7), the concentration for half-maximal inhibition (IC50) (as a rule, the midpoint of a concentration-inhibition curve) was determined as 1.42 nM. Also, the “Ratio rCT/rAmylin binding” value in data set [2] (setting [3]), in data set [2] (setting [4]) and in data set [2] (setting [5]) was 42.9 throughout.

`CC[C@H](C)[C@H](NC(=O)[C@H](C)NC(=O)CNC(=O)[C@H](Cc1ccccc1)NC(=O)[C@H](CC(N)=O)NC(=O)[C@@H]1CCCN1C(=O)[C@H](CO)NC(=O)[C@H](CO)NC(=O)[C@H](Cc1c[nH]cn1)NC(=O)[C@H](CCCNC(=N)N)NC(=O)[C@H](CC(C)C)NC(=O)[C@H](Cc1ccccc1)NC(=O)[C@H](CC(N)=O)NC(=O)[C@H](C)NC(=O)[C@H](CC(C)C)NC(=O)[C@H](CCCNC(=N)N)NC(=O)[C@H](CCC(N)=O)NC(=O)[C@@H](NC(=O)[C@H](C)NC(=O)[C@@H]1CSSC[C@H](NC(=O)[C@@H](N)CCCCNC(=O)COCCOCCNC(=O)COCCOCCNC(=O)CC[C@H](NC(=O)CCCCCCCCCCCCCCCCCCC(=O)O)C(=O)O)C(=O)N[C@@H](CC(N)=O)C(=O)N[C@@H]([C@@H](C)O)C(=O)N[C@@H](C)C(=O)N[C@@H]([C@@H](C)O)C(=O)N1)[C@@H](C)O)C(=O)N1CCC[C@H]1C(=O)N[C@@H](CO)C(=O)N[C@@H](CO)C(=O)N[C@H](C(=O)N[C@@H](CC(N)=O)C(=O)N[C@H](C(=O)NCC(=O)N[C@@H](CCCNC(=N)N)C(=O)N[C@@H](CC(N)=O)C(=O)N[C@H](C(=O)N[C@@H](Cc1ccc(O)cc1)C(N)=O)[C@@H](C)O)C(C)C)[C@@H](C)O` [Example 95] (H-K([AEEA-AEEA-γGlu-C20 diacid])CNTATCATQRLANFLRHSSPNFGAIPSSTNVGRNTY-NH2; disulfide 2-7 (inferred); N-terminus assumed): the “ThT pH 4.0 lag time (h)” value in data set [1] was found to be 37 h. Further, the IC50 in data set [2] (Table 7) amounted to 5.45 nM. In addition, the “Ratio rCT/rAmylin binding” value in data set [2] (setting [3]), in data set [2] (setting [4]) and in data set [2] (setting [5]) was 71.3 each time.

For `CC[C@H](C)[C@H](NC(=O)[C@H](C)NC(=O)CNC(=O)[C@H](Cc1ccccc1)NC(=O)[C@H](CC(N)=O)NC(=O)[C@@H]1CCCN1C(=O)[C@H](CO)NC(=O)[C@H](CO)NC(=O)[C@H](Cc1c[nH]cn1)NC(=O)[C@H](CCCNC(=N)N)NC(=O)[C@H](CC(C)C)NC(=O)[C@H](Cc1ccccc1)NC(=O)[C@H](CCC(=O)O)NC(=O)[C@H](C)NC(=O)[C@H](CC(C)C)NC(=O)[C@H](CCCNC(=N)N)NC(=O)[C@H](CCC(N)=O)NC(=O)[C@@H](NC(=O)[C@H](C)NC(=O)[C@@H]1CSSC[C@H](NC(=O)[C@H](CCCCN)NC(=O)CC[C@H](NC(=O)CCCCCCCCCCCCCCCCCCC(=O)O)C(=O)O)C(=O)N[C@@H](CC(N)=O)C(=O)N[C@@H]([C@@H](C)O)C(=O)N[C@@H](C)C(=O)N[C@@H]([C@@H](C)O)C(=O)N1)[C@@H](C)O)C(=O)N1CCC[C@H]1C(=O)N[C@@H](CO)C(=O)N[C@@H](CO)C(=O)N[C@H](C(=O)N[C@@H](CC(N)=O)C(=O)N[C@H](C(=O)NCC(=O)N[C@@H](CO)C(=O)N[C@@H](CCCNC(=N)N)C(=O)N[C@H](C(=O)N[C@@H](Cc1ccc(O)cc1)C(N)=O)[C@@H](C)O)C(C)C)[C@@H](C)O` [Example 16] ({C20 diacid-γGlu}-KCNTATCATQRLAEFLRHSSPNFGAIPSSTNVGSRTY-NH2; disulfide 2-7), the “ThT pH 4.0 lag time (h)” value in data set [1] came to 45 h. Moreover, the IC50 in data set [2] (Table 7) came to 1.21 nM. Moreover, the “Ratio rCT/rAmylin binding” value in data set [2] (setting [3]), in data set [2] (setting [4]) and in data set [2] (setting [5]) was 45.6 each time.

For the molecule `CC[C@H](C)[C@H](NC(=O)[C@H](C)NC(=O)CNC(=O)[C@H](Cc1ccccc1)NC(=O)[C@H](CC(N)=O)NC(=O)[C@@H]1CCCN1C(=O)[C@H](CO)NC(=O)[C@H](CO)NC(=O)[C@H](Cc1c[nH]cn1)NC(=O)[C@H](CCCNC(=N)N)NC(=O)[C@H](CC(C)C)NC(=O)[C@H](Cc1ccccc1)NC(=O)[C@H](CCC(=O)O)NC(=O)[C@H](C)NC(=O)[C@H](CC(C)C)NC(=O)[C@H](CCCNC(=N)N)NC(=O)[C@H](CCC(N)=O)NC(=O)[C@@H](NC(=O)[C@H](C)NC(=O)[C@@H]1CSSC[C@H](NC(=O)[C@@H](N)CCCCNC(=O)CC[C@H](NC(=O)CCCCCCCCCCCCCCCCCCC(=O)O)C(=O)O)C(=O)N[C@@H](CC(N)=O)C(=O)N[C@@H]([C@@H](C)O)C(=O)N[C@@H](C)C(=O)N[C@@H]([C@@H](C)O)C(=O)N1)[C@@H](C)O)C(=O)N1CCC[C@H]1C(=O)N[C@@H](CO)C(=O)N[C@@H](CO)C(=O)N[C@H](C(=O)N[C@@H](CC(N)=O)C(=O)N[C@H](C(=O)NCC(=O)N1CCC[C@H]1C(=O)N[C@@H](CC(N)=O)C(=O)N[C@H](C(=O)N1CCC[C@H]1C(N)=O)[C@@H](C)O)C(C)C)[C@@H](C)O` [Example 114] (H-K([γGlu-C20 diacid])CNTATCATQRLAEFLRHSSPNFGAIPSSTNVGPNTP-NH2; disulfide 2-7 (inferred); N-terminus assumed), the “ThT pH 4.0 lag time (h)” value in data set [1] is given as 45 h. The “Ratio rCT/rAmylin binding” value in data set [2] (setting [3]) is recorded as 1.1.
